Laboratory results as given in ChEMBL document CHEMBL4842370, “Discovery of 1-(phenylsulfonyl)-1H-indole-based multifunctional ligands targeting cholinesterases and 5-HT6 receptor with anti-aggregation properties against amyloid-beta and tau” (Eur J Med Chem, 2021).
Active and inactive are the calls of the source. No cut-off for these calls is given here.

Assays:
[1] = biological target: T1, Amyloid-beta precursor protein (Homo sapiens, UniProt P05067); assay: Inhibition of amyloid beta (1 to 42) (unknown origin) aggregation expressed in Escherichia coli BL21 (DE3) at 10 uM incubated for 24 hrs by microplate reader assay relative to control
Acetylcholinesterase = Acetylcholinesterase (Electrophorus electricus, UniProt O42275); assay: Inhibition of electric eel AChE using acetylthiocholine iodide as substrate incubated for 5 mins followed by substrate addition and measured after 5 mins by spectrophotometric based Ellman's method
Cholinesterase = Cholinesterase (Equus caballus, UniProt P81908)
Description: Inhibition of equine serum BuChE using butyrylthiocholine as substrate incubated for 5 mins followed by substrate addition and measured after 5 mins by spectrophotometric based Ellman's method

[2] = biological target: T1, Amyloid-beta precursor protein; assay: Inhibition of HFIP-pretreated human recombinant amyloid beta (1 to 42) self aggregation at 10 uM incubated up to 48 hrs under shaking condition and measured every 3 min by Thioflavin T based fluorescence assay relative to control
Homo sapiens = organism: Homo sapiens; assay: Inhibition of tau protein (unknown origin) expressed in Escherichia coli BL21 (DE3) at 10 uM incubated for 24 hrs by microplate reader assay relative to control
[3] = biological target: T2, 5-hydroxytryptamine receptor 6 (Homo sapiens, UniProt P50406); assay: Displacement of [3H]-LSD from human 5HT6R expressed in CHO-K1 cell membranes incubated for 1 hr by scintillation counter method; set-up: species or system Membrane
[4] = biological target: T2, 5-hydroxytryptamine receptor 6; assay: Antagonist activity at human 5HT6R expressed in 1321N1 cells assessed as inhibition of […] cAMP production measured after 30 mins by TR-FRET assay; format: functional, cell-based; conditions: filed as antagonist
HepG2 = assay: Cytotoxicity against human HepG2 cells assessed as cell reduction in cell viability incubated for 48 hrs by MTS assay; format: cell-based; conditions: HepG2, 48 h
in vitro [5] = conditions: PAMPA
Description: Permeability coefficient of the compound in PBS buffer incubated for 5 hrs by PAMPA-based LC-MS analysis

Cytochrome P450 2D6 = Cytochrome P450 2D6 (Homo sapiens, UniProt P10635); assay: Inhibition of CYP2D6 (unknown origin) at <=10 uM; format: ADME
in vitro [6] = conditions: mouse, liver microsomes
Cytochrome P450 3A4 = Cytochrome P450 3A4 (Homo sapiens, UniProt P08684); assay: Inhibition of CYP3A4 (unknown origin) at <=10 uM; format: ADME
[7] = biological target: T1, Amyloid-beta precursor protein; assay: Inhibition of HFIP-pretreated human recombinant amyloid beta (1 to 42) self aggregation incubated up to 48 hrs under shaking condition and measured every 3 min by Thioflavin T based fluorescence assay

Acetylcholinesterase, sequence (O42275 whole entry): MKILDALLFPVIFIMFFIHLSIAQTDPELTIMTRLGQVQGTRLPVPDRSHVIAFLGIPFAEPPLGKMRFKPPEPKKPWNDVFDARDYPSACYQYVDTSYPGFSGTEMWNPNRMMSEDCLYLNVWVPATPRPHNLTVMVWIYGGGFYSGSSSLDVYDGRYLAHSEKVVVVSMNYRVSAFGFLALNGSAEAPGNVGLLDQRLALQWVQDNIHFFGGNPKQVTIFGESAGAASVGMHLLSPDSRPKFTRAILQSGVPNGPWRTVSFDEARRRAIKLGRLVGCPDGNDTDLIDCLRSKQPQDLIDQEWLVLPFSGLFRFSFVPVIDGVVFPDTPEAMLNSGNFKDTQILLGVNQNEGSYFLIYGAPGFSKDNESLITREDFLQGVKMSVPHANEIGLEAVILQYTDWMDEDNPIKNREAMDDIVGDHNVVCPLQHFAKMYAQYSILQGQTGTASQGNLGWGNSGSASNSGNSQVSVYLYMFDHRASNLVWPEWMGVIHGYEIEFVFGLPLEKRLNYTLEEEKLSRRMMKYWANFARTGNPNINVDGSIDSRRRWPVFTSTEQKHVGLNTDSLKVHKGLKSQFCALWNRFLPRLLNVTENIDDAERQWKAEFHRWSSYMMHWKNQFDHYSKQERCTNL
T1 sequence (P05067 whole entry): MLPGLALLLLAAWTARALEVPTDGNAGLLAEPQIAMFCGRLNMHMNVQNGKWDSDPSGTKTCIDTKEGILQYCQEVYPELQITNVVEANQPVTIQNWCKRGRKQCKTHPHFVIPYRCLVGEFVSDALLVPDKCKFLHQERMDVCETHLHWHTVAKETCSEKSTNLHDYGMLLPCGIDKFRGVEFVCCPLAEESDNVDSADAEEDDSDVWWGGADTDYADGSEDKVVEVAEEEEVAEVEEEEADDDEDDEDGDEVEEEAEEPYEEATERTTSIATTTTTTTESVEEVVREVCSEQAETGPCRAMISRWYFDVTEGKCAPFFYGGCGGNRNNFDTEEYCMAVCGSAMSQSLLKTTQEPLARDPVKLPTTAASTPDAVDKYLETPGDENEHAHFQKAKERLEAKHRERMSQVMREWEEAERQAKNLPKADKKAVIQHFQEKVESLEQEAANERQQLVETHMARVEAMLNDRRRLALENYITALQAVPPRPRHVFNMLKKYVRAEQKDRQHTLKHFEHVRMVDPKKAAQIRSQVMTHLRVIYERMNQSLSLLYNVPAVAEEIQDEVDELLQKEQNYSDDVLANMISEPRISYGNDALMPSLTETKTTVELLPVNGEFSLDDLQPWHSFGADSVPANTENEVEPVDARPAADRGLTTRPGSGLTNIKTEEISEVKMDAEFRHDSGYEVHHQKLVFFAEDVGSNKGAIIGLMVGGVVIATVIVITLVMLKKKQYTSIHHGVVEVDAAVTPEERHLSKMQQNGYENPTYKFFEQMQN
T2 sequence (P50406 whole entry): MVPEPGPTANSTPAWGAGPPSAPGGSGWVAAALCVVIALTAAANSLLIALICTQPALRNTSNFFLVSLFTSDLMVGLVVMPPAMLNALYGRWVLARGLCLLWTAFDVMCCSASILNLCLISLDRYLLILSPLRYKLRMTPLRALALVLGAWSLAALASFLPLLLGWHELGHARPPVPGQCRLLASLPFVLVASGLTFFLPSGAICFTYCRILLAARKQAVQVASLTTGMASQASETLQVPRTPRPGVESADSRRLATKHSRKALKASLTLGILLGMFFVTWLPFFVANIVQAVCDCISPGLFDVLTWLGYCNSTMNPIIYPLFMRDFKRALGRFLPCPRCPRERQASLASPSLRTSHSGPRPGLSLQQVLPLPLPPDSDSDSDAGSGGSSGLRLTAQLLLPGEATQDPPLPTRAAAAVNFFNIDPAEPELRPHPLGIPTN
Cholinesterase, sequence (P81908 whole entry): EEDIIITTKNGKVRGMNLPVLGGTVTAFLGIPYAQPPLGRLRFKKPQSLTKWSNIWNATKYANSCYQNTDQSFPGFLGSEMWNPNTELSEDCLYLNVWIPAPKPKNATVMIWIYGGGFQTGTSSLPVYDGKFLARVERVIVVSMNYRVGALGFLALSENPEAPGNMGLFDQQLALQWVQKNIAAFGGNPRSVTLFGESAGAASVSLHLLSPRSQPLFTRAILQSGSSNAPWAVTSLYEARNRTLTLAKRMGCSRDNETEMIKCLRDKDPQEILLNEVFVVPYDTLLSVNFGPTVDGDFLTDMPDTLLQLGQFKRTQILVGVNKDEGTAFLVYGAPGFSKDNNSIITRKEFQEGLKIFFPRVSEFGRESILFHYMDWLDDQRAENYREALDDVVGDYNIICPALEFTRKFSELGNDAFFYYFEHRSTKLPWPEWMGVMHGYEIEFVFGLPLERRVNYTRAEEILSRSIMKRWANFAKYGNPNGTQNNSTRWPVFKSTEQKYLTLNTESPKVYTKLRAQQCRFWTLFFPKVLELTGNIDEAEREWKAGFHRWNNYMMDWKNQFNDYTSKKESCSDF
Cytochrome P450 2D6, sequence (P10635 whole entry): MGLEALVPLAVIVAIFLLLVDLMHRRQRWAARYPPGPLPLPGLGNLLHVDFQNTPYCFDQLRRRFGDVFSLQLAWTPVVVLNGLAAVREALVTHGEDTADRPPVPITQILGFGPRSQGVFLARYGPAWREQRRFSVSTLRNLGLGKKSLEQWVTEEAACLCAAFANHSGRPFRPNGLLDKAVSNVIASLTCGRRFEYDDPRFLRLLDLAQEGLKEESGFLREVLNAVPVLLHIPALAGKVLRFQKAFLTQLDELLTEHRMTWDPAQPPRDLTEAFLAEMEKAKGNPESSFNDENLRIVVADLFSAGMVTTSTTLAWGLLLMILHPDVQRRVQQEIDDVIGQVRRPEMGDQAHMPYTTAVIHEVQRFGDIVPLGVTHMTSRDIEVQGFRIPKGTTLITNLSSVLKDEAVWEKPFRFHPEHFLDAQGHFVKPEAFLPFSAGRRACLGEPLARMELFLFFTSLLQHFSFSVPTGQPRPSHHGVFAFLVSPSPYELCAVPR
Cytochrome P450 3A4, sequence (P08684 whole entry): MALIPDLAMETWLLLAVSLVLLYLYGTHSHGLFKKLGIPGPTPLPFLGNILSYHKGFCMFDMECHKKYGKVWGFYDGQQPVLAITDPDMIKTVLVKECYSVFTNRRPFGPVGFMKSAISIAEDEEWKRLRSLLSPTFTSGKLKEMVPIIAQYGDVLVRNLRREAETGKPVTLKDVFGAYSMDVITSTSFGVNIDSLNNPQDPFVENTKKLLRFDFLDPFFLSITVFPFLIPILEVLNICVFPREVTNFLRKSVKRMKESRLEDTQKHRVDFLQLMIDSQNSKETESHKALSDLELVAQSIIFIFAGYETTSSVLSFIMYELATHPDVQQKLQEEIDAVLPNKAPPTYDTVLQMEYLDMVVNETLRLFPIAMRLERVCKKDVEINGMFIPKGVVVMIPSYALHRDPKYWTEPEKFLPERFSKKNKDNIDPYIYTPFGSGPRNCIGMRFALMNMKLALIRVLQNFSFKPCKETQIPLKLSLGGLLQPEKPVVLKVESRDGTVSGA

Structure (SMILES)	inhibition [1]	IC50 (Acetylcholinesterase; read-out: IC50)	IC50 (Cholinesterase)	inhibition [2]	inhibition (Homo sapiens)	Ki [3]	Kb [4]	IC50 (Acetylcholinesterase)	IC50 (HepG2)	Papp at 5 h (in vitro [5])	inhibition (INH) (Cytochrome P450 2D6)	metabolised at 2 h (in vitro [6])	inhibition (INH) (Cytochrome P450 3A4)	IC50 [7]
O=S(=O)(c1ccccc1)n1ccc2c(OCCNCCNCc3ccc(F)cc3)cccc21	23.7%	6210 µM	1.3 µM	73.4%	58%	0.0001 µM								
O=S(=O)(c1ccccc1)n1ccc2c(OCCNCCCCNc3c4c(nc5ccccc35)CCCC4)cccc21		0.0575 µM	0.00939 µM	77.4%		0.0035 µM	0.01 µM							
Cc1cccc(CNCCNCCOc2cccc3c2ccn3S(=O)(=O)c2ccccc2)c1	48.5%	4470 µM	1.07 µM	57.4%	58.8%	0.002 µM								
O=S(=O)(c1ccccc1)n1ccc2c(OCCNCCCCCNc3c4c(nc5ccccc35)CCCC4)cccc21		0.303 µM	0.00217 µM	73.2%		0.007 µM								
O=[N+]([O-])c1ccc(CNCCNCCOc2cccc3c2ccn3S(=O)(=O)c2ccccc2)cc1	31.6%		4.26 µM	57.7%	62.3%	0.002 µM		Not Active						
O=S(=O)(c1ccccc1)n1ccc2c(OCCNCCNCc3cccc(C(F)(F)F)c3)cccc21	37.1%		2.12 µM	inactive	79.4%	0.0017 µM	0.007 µM	Not Active						
O=S(=O)(c1ccccc1)n1ccc2c(OCCNCCCCNCc3ccccc3)cccc21			0.887 µM	41.8%		0.008 µM		Not Active						
O=S(=O)(c1ccccc1)n1ccc2c(OCCNCCCCCCNc3c4c(nc5ccccc35)CCCC4)cccc21		0.0725 µM	0.00407 µM	69.2%		0.0086 µM								
O=S(=O)(c1ccccc1)n1ccc2c(OCCNCCNCc3ccccc3)cccc21	26.9%	2.87 µM	0.528 µM	55%	58.1%	0.003 µM	0.009 µM							
O=S(=O)(c1ccccc1)n1ccc2c(OCCNCCCCCNCc3ccccc3)cccc21	36.5%		0.394 µM	62.5%	51.7%	0.012 µM		Not Active						
O=S(=O)(c1ccccc1)n1ccc2c(OCCNCCNCc3ccc(Cl)cc3)cccc21	31.9%		1.99 µM	60.6%	58.2%	0.001 µM		Not Active						
CCN(C)C(=O)Oc1cccc([C@H](C)N(C)C)c1				86.6%										
CCN(C)C(=O)Oc1cccc(CNCCNCCOc2cccc3c2ccn3S(=O)(=O)c2ccccc2)c1	77.5%		0.454 µM	68.1%	68.7%	0.015 µM	0.048 µM	Not Active	21.1 µM	1.27 ×10⁻⁶ cm/s	Not Active	40%	Not Active	1.38 µM
O=S(=O)(c1ccccc1)n1ccc2c(OCCNCCCNc3c4c(nc5ccccc35)CCCC4)cccc21		0.0209 µM	0.0188 µM	61.1%		0.01 µM								
O=S(=O)(c1ccccc1)n1ccc2c(OCCNCCNCc3ccccc3Cl)cccc21	27.5%	4.24 µM	0.586 µM	57%	53.5%	0.003 µM	0.058 µM							
O=S(=O)(c1ccccc1)n1ccc2c(OCCNCCCNCc3ccccc3)cccc21			0.701 µM	53.2%		0.008 µM		Not Active						
O=S(=O)(c1ccccc1)n1ccc2c(OCCNCCNCc3cccc(Cl)c3)cccc21	25.7%	4.84 µM	1.07 µM	64.3%	57.5%	0.002 µM								
O=S(=O)(c1ccccc1)n1ccc2c(OCCNCCNc3c4c(nc5ccccc35)CCCC4)cccc21		0.00842 µM	0.0244 µM	74.8%		0.013 µM			79.6 µM		Not Active	72%	Not Active	1.1 µM
COc1ccc(CNCCNCCOc2cccc3c2ccn3S(=O)(=O)c2ccccc2)cc1	41.4%		2.07 µM	63.8%	64%	0.0035 µM		Not Active						
O=S(=O)(c1ccccc1)n1ccc2c(OCCNCCNCc3cc(Cl)cc(Cl)c3)cccc21	40.9%		1.66 µM	57.2%	62.3%	0.011 µM		Not Active						
